{"source": "patent EP4302832A1", "about": "“PALBOCICLIB FORMULATION CONTAINING GLUCONO DELTA LACTONE” (Lotus Pharmaceutical Co., Ltd., priority 2022, dated 2024)", "origin": "cited, not measured here", "key": {"[1]": {"settings": "low pH (2.1-4.5)"}}, "note": "Like-named read-outs stand apart in the source and are kept apart here."}
{"compound": "CC(=O)c1c(C)c2cnc(Nc3ccc(N4CCNCC4)cn3)nc2n(C2CCCC2)c1=O", "note": "[Palbociclib, 6-acetyl-8-cyclopentyl-5-methyl-2-(5-piperazin-1-yl-pyridin-2-ylamino)-8H-pyrido[2,3-d]-pyrimidin-7-one]", "values": [{"measurement": "pKa", "setting": "the pyridine nitrogen", "value": "~4.1"}, {"measurement": "pKa", "setting": "the secondary piperazine nitrogen", "value": "approximately 7.3"}, {"measurement": "solubility", "setting": "[1]", "value": "water soluble"}]}
